Patent US20230414510A1 (CRITITECH, INC., priority 2020, published 2023)
Blank lines part the entries; values can stand above or below the molecule they belong to.

Assays:
[1] = Specific surface area (SSA) by BET sorptometry; format: physicochemical; conditions: for Surface Area: Table 8
Procedure: The BET specific surface area test procedure is a compendial method included in both the United States Pharmacopeia and the European Pharmacopeia.
(§1) Approximately 63 precipitation runs (approximately 500 mg to 10 grams) were conducted on the RC612B precipitation unit, according to examples provided above. Variables modified between each precipitation are detailed in Tables 1-3 below. The precipitates were analyzed by laser diffraction to determine PSD, BET sorptometry to determine SSA, and SEM to determine habit and support PSD and SSA data.
SSA determination analyses were conducted on a Porous Materials, Inc., Automated BET Sorptometer BET-202A according to manufacturer's instructions.

Tapped density = format: physicochemical; conditions: for Bulk Tapped Density: Table 8
Excerpt: As used herein, the tapped density of a particle is obtained by mechanically tapping a graduated cylinder containing the sample until little further volume change is observed.

[2] = Particle size distribution (PSD) by laser diffraction, Malvern Mastersizer 3000 Aero S; format: physicochemical; conditions: for Mean Geometric Particle size Dv50: Table 8
Procedure: as §1
PSD analyses were conducted on a Malvern Mastersizer™ 3000 using the Aero S™ dispersion unit according to manufacturer's instructions.

[3] = Bulk density (not tapped); format: physicochemical
Excerpt: As used herein, the bulk density (not tapped) of a particle is the ratio of the mass to the volume (including the interparticulate void volume) of an untapped powder sample.

[4] = Dissolution in 40% isopropanol 37° C., rotating paddle 50 rpm; format: physicochemical
Procedure: Exemplary processed products were also used for dissolution for comparison to unprocessed/raw material. Dissolution studies were carried out in 40% isopropanol 37° C. with a rotating paddle at 50 rpm.

[5] = Mass median aerodynamic diameter (MMAD) of aerosol, rotating brush generator and TSI Aerodynamic Particle Sizer 3321; format: physicochemical; conditions: for GSD: second figure of the MMAD/GSD cell
[6] = intravenous; Andrews et al., 1982; Schweizer et al., 2018; cited from earlier work
[7] = target: T1, TMEM16A (Anoctamin-1, Ano1) (Homo sapiens, UniProt Q5XXA6); conditions: Miner et al., 2019; cited from earlier work
T1 sequence (Q5XXA6 1-986): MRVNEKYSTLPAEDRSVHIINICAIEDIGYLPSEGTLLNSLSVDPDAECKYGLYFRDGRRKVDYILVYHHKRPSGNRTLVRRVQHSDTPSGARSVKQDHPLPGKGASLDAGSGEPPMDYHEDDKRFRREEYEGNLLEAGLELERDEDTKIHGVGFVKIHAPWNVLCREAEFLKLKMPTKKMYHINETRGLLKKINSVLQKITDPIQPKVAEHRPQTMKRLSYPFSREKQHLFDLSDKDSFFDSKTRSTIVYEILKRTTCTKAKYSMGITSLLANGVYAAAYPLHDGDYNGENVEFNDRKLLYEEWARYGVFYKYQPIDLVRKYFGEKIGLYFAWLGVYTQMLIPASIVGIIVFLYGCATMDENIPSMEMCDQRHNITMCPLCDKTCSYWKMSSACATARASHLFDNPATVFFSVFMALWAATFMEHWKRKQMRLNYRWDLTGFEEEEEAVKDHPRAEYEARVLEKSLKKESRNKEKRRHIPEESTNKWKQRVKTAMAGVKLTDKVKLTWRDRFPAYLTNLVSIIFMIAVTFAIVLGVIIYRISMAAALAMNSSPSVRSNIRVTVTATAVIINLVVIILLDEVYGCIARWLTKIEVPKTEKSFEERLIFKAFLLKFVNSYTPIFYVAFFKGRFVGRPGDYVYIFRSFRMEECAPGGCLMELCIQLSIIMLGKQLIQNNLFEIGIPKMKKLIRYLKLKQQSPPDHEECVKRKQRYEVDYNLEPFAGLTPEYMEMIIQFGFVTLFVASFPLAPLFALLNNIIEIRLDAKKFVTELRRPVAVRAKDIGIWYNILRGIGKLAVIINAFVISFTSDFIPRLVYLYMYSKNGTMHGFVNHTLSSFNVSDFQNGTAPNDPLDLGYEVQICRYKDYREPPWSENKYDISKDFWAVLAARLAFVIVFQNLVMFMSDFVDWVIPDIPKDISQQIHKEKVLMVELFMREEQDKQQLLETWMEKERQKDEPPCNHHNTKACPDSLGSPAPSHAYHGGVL

[8] = listed as Milled (micronized) Niclosamide Drug Substance
[9] = volume distribution, unit not given in Tables 1-3, 6, 7

SSA ([1]; BET, Tables 4, 5): 2.684 m^2/g
SMILES: NCCO.O=C(Nc1ccc([N+](=O)[O-])cc1Cl)c1cc(Cl)ccc1O [Niclosamide ethanolamine, niclosamide ethanolamine]

Bulk Tapped Density (Tapped density; [8]): 0.62 gm/cm3
Tapped Density (Tapped density; Tables 1-3 print no unit): 0.619
Surface Area [1, 8]: 3.264 m2/gm
Mean Geometric Particle size Dv50 [2, 8]: 2.97 microns
PSD-Mastersizer Dv-10 [2, 9]: 0.765
PSD-Mastersizer Dv-50 [2, 9]: 2.97
PSD-Mastersizer Dv-90 [2, 9]: 6.39
Bulk Density ([3]; Table 8, listed as Milled (micronized) Niclosamide Drug Substance): 0.49 gm/cm3
Bulk Density ([3]; not tapped, Tables 1-3 print no unit): 0.486
Dissolution in 40% isopropanol 37C 50 rpm rotating paddle ([4]; 5 min, listed as Milled (micronized) Niclosamide Drug Substance): 2.9%
Dissolution in 40% isopropanol 37C 50 rpm rotating paddle ([4]; 15 min, listed as Milled (micronized) Niclosamide Drug Substance): 4.7%
Dissolution in 40% isopropanol 37C 50 rpm rotating paddle ([4]; 30 min, listed as Milled (micronized) Niclosamide Drug Substance): 8.4%
Dissolution in 40% isopropanol 37C 50 rpm rotating paddle ([4]; 60 min, listed as Milled (micronized) Niclosamide Drug Substance): 12.7%
Dissolution in 40% isopropanol 37C 50 rpm rotating paddle ([4]; 90 min, listed as Milled (micronized) Niclosamide Drug Substance): 17.3%
Dissolution in 40% isopropanol 37C 50 rpm rotating paddle ([4]; 120 min, listed as Milled (micronized) Niclosamide Drug Substance): 23.3%
GSD [5, 8]: 1.74
SMILES: O=C(Nc1ccc([N+](=O)[O-])cc1Cl)c1cc(Cl)ccc1O [Micronized Niclosamide API, niclosamide]

Bulk Tapped Density (Tapped density): 0.57 gm/cm3
Surface Area [1]: 1.359 m2/gm
Mean Geometric Particle size Dv50 [2]: 21.1 microns
Bulk Density ([3]; Table 8): 0.45 gm/cm3
Dissolution in 40% isopropanol 37C 50 rpm rotating paddle ([4]; 5 min): 1.7%
Dissolution in 40% isopropanol 37C 50 rpm rotating paddle ([4]; 15 min): 3.8%
Dissolution in 40% isopropanol 37C 50 rpm rotating paddle ([4]; 30 min): 6.5%
Dissolution in 40% isopropanol 37C 50 rpm rotating paddle ([4]; 60 min): 11.2%
Dissolution in 40% isopropanol 37C 50 rpm rotating paddle ([4]; 90 min): 15%
Dissolution in 40% isopropanol 37C 50 rpm rotating paddle ([4]; 120 min): 20.6%
MMAD ([5]; aerosol from rotating brush generator): 2.64 microns
GSD [5]: 1.82
SMILES: O=C(Nc1ccc([N+](=O)[O-])cc1Cl)c1cc(Cl)ccc1O [Niclosamide Drug Substance, niclosamide]
Toxicity when administered intravenously [6]: substantial toxicity
Inhibition of TMEM16A [7]: potent inhibitor
